The values below come from patent US7964631B2, “Fused tricyclic compounds as inhibitors of tumor necrosis factor-α” (Piramal Life Sciences Limited, priority 2004, dated 2011).

The test system of data set [1] is TNF-α. The experiment in a line: Whole blood cell culture assay: LPS-induced TNF-α release (primary screening). The format is cell-based, human. The settings on record: Homo sapiens, Whole blood cell; test compound 1 μM; diluted whole blood of healthy donors; LPS 1 μg/ml, 4.5 h; vs DMSO control. On the procedure:
TNF-α production by lipopolysaccharide (LPS) in whole blood was measured according to the method described by Wilson et al (J. Immunol. Methods, 139: 233-240, 1991). Briefly, blood was collected from healthy donors into potassium EDTA vacutainer tubes (Vacutest Plast/Becton Dickinson) and diluted with RPMI 1640 culture medium (Gibco BRL, Pasley, UK) containing 100 U/ml penicillin and 100 μg/ml streptomycin, (100× solution, Sigma Chemical Co. St Louis, Mo.) with no added serum. The white blood cell count was adjusted to 1×10^6 cells/ml and 100 μl/well of the diluted blood was transferred into 96-well culture plates. Following cell plating, 79 μl of culture medium and 1 μl of the test compounds (final concentration 1 μM) dissolved in DMSO (dimethylsulfoxide, Sigma, Mo., USA) was added to the cells. The final concentration of DMSO was adjusted to 0.5%. 1 μl of vehicle (0.5% DMSO) was used as control. Rolipram (100 μM) was used as a standard compound. The plates were incubated for 30 min at 37° C. in an atmosphere of 5% CO2. Finally, 20 μl (10 μg/ml) per well of LPS (Escherchia coli 0127:B8, Sigma Chemical Co., St. Louis, Mo.) was added, for a final concentration of 1 μg/ml. Plates were incubated at 37° C. for 4.5 h in an atmosphere of 5% CO2. Supernatants were harvested and assayed for TNF-α by ELISA as described by the manufacturer (R&D Systems, MN) or by cytotoxicity bioassay in L929 cells. Percent inhibition of TNF-α release in comparison to the control was calculated.

The subject of data set [2] is TNF-α. The experiment in a line: LPS-induced TNF-α production in peripheral blood mononuclear cells (secondary screening). The format is cell-based. The settings on record: 4.5 h, TNF-α production in PBMC, LPS 1 μg/ml, ELISA or L929 bioassay. On the procedure:
(§1) TNF-α production by LPS in peripheral blood mononuclear cells (PBMC) was measured according to the method described by Henry et al (J. Bioorg. Med. Chem. Lett., 8: 3335-3340, 1998). Briefly, blood was collected from healthy donors into Potassium EDTA vacutainer tubes (Vacutest Plast/Becton Dickinson). PBMC were isolated using gradient centrifugation in Ficoll-Paque solution (Pharmacia). Isolated PBMC were suspended in RPMI 1640 culture medium (Gibco BRL, Pasley, UK) containing 10% fetal bovine serum (FBS) (Hyclone, Utah, USA), 100 U/ml penicillin (Sigma Chemical Co. St Louis, Mo.) and 100 μg/ml streptomycin (Sigma Chemical Co. St Louis, Mo.). The cell concentration was adjusted to 1×10^6 cells/ml. The viability as determined by trypan blue dye exclusion was uniformly ≧98%. The cell suspension (100 μl) was added to the wells of a 96-well culture plate. Following cell plating, 79 μl of the culture medium and 1 μl of eight different concentrations of the test compounds (final concentration 0.03, 0.1, 0.3, 1, 3, 10, 30, 100 μM) dissolved in DMSO (dimethylsulfoxide, Sigma, Mo., USA) were added to the cells. The final concentration of DMSO was adjusted to 0.5%. The appropriate DMSO concentration was used as control. Rolipram (30 μM) was used as a standard compound. The plates were incubated for 30 min at 37° C. in an atmosphere of 5% CO2. Finally, 20 μl (10 μg/ml) per well of LPS, (Escherchia coli 0127:B8, Sigma Chemical Co., St. Louis, Mo.) was added, for a final concentration of 1 μg/ml. The plates were incubated at 37° C. for 4.5 h in an atmosphere of 5% CO2. To determine the cytotoxicity of the test compounds, the cell viability was assessed using MTS (3-(4,5-dimethylthiazol-2-yl)-5-(3-carboxymethoxyphenyl)-2-(4-sulfonyl)-2H-tetrazolium) reagent (Promega) after 4.5 h of incubation. Supernatants were harvested and assayed for TNF-α by ELISA as described by the manufacturer (R&D Systems, MN, BD Biosciences Pharmingen) or by cytotoxicity bioassay in L929 cells. The 50% inhibitory concentration (IC50) values were calculated by a nonlinear regression method using GraphPad software (Prism 3.03)
For orientation: ELISA stands for enzyme-linked immunosorbent assay.

For data set [3], the system named is peripheral blood mononuclear cells (PBMC). The experiment in a line: Cytotoxicity of test compounds in PBMC, cell viability by MTS reagent. The format is cell-based, human. As for the experimental part:
as §1
On the technique in general: Tetrazolium assays rely on reduction of a dye to a coloured formazan, in cell work by metabolically active cells.

Data set [4] has as its system TNF-α. The experiment in a line: LPS-induced TNF-α release in BALB/c mice. Type of data set: in vivo. Conditions: Mus musculus, LPS 1 mg/kg i.p. 1 h after dosing, plasma TNF-α 1.5 h after LPS, read-out: % inhibition (Mean ± SE*); for inhibition in vivo at 100 mg/kg: 100 mg/kg po. On the procedure: The protocol described by Fukuda T. et al (Eur. J. Pharmacol., 391: 317-320, 2000) was followed. BALB/c mice were divided into groups of five to ten each. The test compound, suspended in Tween 80-0.5% carboxy methylcellulose (CMC), with a few drops of Tween 80 as wetting agent if necessary, was administered orally (p.o.) to the mice. One hour later, LPS dissolved in sterile, pyrogen-free saline was administered i.p. at the dose of 1 mg/kg. The negative control group received saline as an i.p injection, while all other groups received LPS. Rolipram (30 mg/kg) was used as the standard drug. One and a half hours later, blood was collected in heparin. Plasma was separated by centrifugation at 13000 rpm (Heraeus Biofuge Pico Centrifuge) at room temperature, aliquoted and stored at −70° C. until analysis.
TNF-α levels in the blood samples were assayed using ELISA and % inhibition of TNF-α release compared to the control group was calculated.

One may read the inhibition as the percentage by which the read-out fell short of the control. A low value points to a weak effect. By IC50 is commonly meant the concentration at which inhibition is half-maximal. The term melting point denotes the temperature of the solid-liquid transition. Consider `COC(=O)c1cc(C)c2c(c1)S(=O)(=O)Cc1cc(N3CCNCC3)cc(Cl)c1O2.Cl` [Example 16, 4-Chloro-6-methyl-10,10-dioxo-2-piperazin-1-yl-10,11-dihydro-5-oxa-10lambda*6*-thia-dibenzo[a,d]-cycloheptene-8-carboxylic acid methyl ester hydrochloride], for which the melting point was in the range of 277 to 280 °C. For the same compound, 1 µM produced 41% inhibition in the data set with TNF-α [1]. The IC50 in the data set with TNF-α [2] was determined as 180 nM. Also, in data set [3], the “% toxicity (10 μM), 5 h” value came out at 62%. The inhibition in vivo at 100 mg/kg in the data set with TNF-α [4] worked out at 72.2 ± 3.17%.

The compound `COC(=O)c1cc(C)c2c(c1)S(=O)(=O)Cc1cc(N3CCN(C(=O)c4ccccc4C)CC3)cc(Cl)c1O2` [Example 24, 4-Chloro-6-methyl-2-[4-(2-methyl-benzoyl)-piperazin-1-yl]-10,10-dioxo-10,11-dihydro-5-oxa-10lambda*6*-thia-dibenzo[a,d]cycloheptene-8-carboxylic acid methyl ester] returned a melting point of 201 to 204 °C. The compound also returned an inhibition at 1 µM with TNF-α [1] of 74%. The compound further returned an IC50 with TNF-α [2] of 3870 ± 1420 nM. Further, the “% toxicity (10 μM), 5 h” value in data set [3] is reported as 03%. Moreover, the inhibition in vivo at 30 mg/kg in the data set with TNF-α [4] (30 mg/kg po) turned out to be 17.6 ± 8.72%.

Take `COC(=O)c1cc(C)c2c(c1)S(=O)(=O)Cc1cc(N3CCN(C(=O)OCc4ccccc4)CC3)cc(Cl)c1O2` [Example 26, 4-(4-Chloro-8-methoxycarbonyl-6-methyl-10,10-dioxo-10,11-dihydro-5-oxa-10lambda*6*-thia-dibenzo[a,d]cyclohepten-2-yl)-piperazine-1-carboxylic acid benzyl ester]: the melting point lay in the range of 170 to 173 °C. In the data set with TNF-α [1], this compound displayed an inhibition at 1 µM of 85%. For the same compound, the IC50 with TNF-α [2] was 8050 ± 1570 nM. The “% toxicity (10 μM), 5 h” value in data set [3] was determined as 00%. Further, the inhibition in vivo at 100 mg/kg with TNF-α [4] is 68.7 ± 3.68%.

For the compound `COC(=O)c1cc(C)c2c(c1)S(=O)(=O)Cc1cc(N3CCCNCC3)cc(Cl)c1O2.Cl` [Example 29, 4-Chloro-2-[1,4]diazepan-1yl-6-methyl-10,10-dioxo-10,11-dihydro-5-oxa-10lambda*6*-thia-dibenzo[a,d]cycloheptene-8-carboxylic acid methyl ester hydrochloride], the melting point is 270 °C (dec.). In the data set on TNF-α [1], this compound showed an inhibition at 1 µM of 76%. Also, the IC50 in the data set with TNF-α [2] came out at 510 nM. The “% toxicity (10 μM), 5 h” value in data set [3] is reported as 23%. In addition, in the data set on TNF-α [4], the inhibition in vivo at 100 mg/kg stood at 79.1 ± 0.91%.
